Source: ChEMBL document CHEMBL4630901 (2021)
Active and inactive are the calls of the source. No cut-off for these calls is given here.

Tests used:
[1] = biological target: Prostaglandin E2 receptor EP4 subtype (Homo sapiens) (UniProt P35408); assay: Inhibition of Prostanoid EP4 at 10 µM in the Eurofins-Panlabs radioligand binding assay (Eurofins_assay_268420); parameters: ligand concentration 1 nM
[2] = biological target: Prostaglandin F2-alpha receptor (Mus musculus, UniProt P43117); assay: Bayer inhouse assay (mouse)
Sequence of Prostaglandin F2-alpha receptor (P43117 whole entry): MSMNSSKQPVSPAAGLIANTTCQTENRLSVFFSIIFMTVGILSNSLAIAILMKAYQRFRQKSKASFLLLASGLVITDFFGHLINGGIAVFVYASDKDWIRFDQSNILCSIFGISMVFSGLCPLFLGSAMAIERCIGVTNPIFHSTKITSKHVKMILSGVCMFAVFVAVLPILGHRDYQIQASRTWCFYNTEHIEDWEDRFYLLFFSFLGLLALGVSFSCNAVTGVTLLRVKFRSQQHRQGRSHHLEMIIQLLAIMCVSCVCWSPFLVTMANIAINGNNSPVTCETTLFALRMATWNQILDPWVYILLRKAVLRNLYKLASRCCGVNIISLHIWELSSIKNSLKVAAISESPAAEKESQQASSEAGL

[3] = biological target: T1, Prostaglandin D2 receptor 2 (Homo sapiens) (UniProt Q9Y5Y4); assay: Prostanoid CRTH2 Eurofins-Panlabs radioligand binding assay; parameters: ligand concentration 1 nM
T1 sequence (whole entry): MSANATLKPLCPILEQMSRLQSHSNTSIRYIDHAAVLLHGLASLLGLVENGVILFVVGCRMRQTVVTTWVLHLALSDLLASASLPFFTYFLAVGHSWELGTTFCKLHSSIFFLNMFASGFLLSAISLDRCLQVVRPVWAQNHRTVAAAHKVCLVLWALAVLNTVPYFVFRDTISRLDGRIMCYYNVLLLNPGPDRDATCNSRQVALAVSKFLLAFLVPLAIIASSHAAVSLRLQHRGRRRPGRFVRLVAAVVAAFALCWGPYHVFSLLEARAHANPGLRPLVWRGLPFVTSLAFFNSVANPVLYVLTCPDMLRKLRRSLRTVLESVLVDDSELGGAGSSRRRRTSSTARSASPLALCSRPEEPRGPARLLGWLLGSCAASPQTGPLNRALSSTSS

[4] = biological target: Prostaglandin E2 receptor EP2 subtype (Homo sapiens) (UniProt P43116); assay: Prostanoid EP2 Eurofins-Panlabs radioligand binding assay; parameters: ligand concentration 4 nM
Sequence of Prostaglandin E2 receptor EP2 subtype (Homo sapiens) (P43116 whole entry): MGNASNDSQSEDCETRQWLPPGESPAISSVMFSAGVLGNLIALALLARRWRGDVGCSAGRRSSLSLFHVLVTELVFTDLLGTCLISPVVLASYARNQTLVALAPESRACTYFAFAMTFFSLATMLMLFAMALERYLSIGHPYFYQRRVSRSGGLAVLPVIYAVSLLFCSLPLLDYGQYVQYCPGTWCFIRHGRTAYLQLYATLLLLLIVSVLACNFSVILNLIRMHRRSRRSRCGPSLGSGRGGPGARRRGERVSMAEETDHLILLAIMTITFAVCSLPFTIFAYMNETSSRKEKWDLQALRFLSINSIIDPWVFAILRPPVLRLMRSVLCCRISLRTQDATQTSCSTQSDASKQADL

[5] = biological target: T2, Glutamate NMDA receptor (Rattus norvegicus) (UniProt P35439+Q00959+Q00960+Q00961+Q62645+Q8VHN2+Q9R1M7); conditions: Compound concentration 10.0 uM
[6] = biological target: T2, Glutamate NMDA receptor (Rattus norvegicus); conditions: Compound concentration 10.0 uM; remark: listed apart in the source
[7] = biological target: Histamine H3 receptor (Homo sapiens) (UniProt Q9Y5N1); conditions: Compound concentration 10.0 uM
[8] = biological target: T3, Muscarinic acetylcholine receptor M1 (Homo sapiens) (UniProt P11229); conditions: Compound concentration 10.0 uM
T3 sequence (whole entry): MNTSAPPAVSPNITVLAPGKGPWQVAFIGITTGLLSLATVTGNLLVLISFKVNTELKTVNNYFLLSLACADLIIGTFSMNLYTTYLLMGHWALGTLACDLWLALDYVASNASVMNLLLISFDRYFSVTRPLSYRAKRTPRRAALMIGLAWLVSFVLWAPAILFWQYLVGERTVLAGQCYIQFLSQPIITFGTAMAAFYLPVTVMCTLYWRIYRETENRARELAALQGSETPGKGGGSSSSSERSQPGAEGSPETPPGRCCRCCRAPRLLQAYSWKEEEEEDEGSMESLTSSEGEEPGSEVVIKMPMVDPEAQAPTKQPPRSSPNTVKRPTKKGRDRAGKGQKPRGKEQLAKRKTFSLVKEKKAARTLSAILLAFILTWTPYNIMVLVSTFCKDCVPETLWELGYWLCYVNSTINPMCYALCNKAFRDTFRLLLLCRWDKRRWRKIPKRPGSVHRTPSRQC

[9] = biological target: Delta-type opioid receptor (Homo sapiens) (UniProt P41143); conditions: Compound concentration 10.0 uM
Sequence of Delta-type opioid receptor (Homo sapiens) (P41143 whole entry): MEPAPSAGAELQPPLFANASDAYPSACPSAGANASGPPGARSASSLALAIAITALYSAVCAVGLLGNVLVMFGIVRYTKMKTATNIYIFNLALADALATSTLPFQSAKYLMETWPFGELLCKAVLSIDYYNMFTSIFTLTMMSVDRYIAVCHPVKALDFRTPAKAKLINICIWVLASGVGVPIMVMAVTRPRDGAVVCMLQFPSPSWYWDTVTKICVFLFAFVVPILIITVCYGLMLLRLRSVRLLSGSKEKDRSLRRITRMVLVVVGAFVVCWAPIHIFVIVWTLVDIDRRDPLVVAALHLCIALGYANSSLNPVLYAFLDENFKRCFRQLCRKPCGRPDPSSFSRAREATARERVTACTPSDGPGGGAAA

[10] = biological target: Mu-type opioid receptor (Homo sapiens) (UniProt P35372); conditions: Compound concentration 10.0 uM
Sequence of Mu-type opioid receptor (Homo sapiens) (P35372 whole entry): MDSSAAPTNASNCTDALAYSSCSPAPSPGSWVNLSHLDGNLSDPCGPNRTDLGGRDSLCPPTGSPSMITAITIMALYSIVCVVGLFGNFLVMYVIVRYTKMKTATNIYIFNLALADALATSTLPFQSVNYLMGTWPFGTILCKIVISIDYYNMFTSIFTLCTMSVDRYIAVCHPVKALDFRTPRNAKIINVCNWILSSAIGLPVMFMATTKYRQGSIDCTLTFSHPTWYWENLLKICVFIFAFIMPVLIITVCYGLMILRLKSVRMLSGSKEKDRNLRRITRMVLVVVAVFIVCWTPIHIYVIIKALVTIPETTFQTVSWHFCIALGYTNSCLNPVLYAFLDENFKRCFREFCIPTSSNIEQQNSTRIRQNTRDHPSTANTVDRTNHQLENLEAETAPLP

[11] = biological target: Purinergic P2Y (Rattus norvegicus) (UniProt O35811+Q9EPX4+P49651+Q63371+P41232+O35881+Q6GUG4); conditions: Compound concentration 10.0 uM
[12] = biological target: Sodium-dependent dopamine transporter (Homo sapiens) (UniProt Q01959); conditions: Compound concentration 10.0 uM
Sequence of Sodium-dependent dopamine transporter (Homo sapiens) (Q01959 whole entry): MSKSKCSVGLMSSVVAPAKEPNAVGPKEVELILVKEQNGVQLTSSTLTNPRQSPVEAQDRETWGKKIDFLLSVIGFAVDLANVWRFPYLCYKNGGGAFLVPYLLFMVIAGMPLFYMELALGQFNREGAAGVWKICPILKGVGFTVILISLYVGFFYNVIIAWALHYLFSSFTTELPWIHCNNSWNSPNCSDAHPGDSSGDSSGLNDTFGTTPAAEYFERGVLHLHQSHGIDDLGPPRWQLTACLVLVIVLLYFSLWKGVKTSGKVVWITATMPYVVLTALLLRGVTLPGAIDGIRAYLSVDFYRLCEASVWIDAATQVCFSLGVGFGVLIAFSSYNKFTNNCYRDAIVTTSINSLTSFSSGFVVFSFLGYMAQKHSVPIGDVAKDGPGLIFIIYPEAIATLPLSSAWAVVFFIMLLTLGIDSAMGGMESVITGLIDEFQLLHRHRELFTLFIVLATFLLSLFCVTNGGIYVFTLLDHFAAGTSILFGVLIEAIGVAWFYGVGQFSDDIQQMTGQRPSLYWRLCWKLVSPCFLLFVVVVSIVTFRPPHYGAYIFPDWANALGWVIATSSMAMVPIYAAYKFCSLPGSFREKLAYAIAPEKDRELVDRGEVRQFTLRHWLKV

[13] = biological target: Sodium-dependent serotonin transporter (Homo sapiens) (UniProt P31645); conditions: Compound concentration 10.0 uM
Sequence of Sodium-dependent serotonin transporter (Homo sapiens) (P31645 whole entry, looked up): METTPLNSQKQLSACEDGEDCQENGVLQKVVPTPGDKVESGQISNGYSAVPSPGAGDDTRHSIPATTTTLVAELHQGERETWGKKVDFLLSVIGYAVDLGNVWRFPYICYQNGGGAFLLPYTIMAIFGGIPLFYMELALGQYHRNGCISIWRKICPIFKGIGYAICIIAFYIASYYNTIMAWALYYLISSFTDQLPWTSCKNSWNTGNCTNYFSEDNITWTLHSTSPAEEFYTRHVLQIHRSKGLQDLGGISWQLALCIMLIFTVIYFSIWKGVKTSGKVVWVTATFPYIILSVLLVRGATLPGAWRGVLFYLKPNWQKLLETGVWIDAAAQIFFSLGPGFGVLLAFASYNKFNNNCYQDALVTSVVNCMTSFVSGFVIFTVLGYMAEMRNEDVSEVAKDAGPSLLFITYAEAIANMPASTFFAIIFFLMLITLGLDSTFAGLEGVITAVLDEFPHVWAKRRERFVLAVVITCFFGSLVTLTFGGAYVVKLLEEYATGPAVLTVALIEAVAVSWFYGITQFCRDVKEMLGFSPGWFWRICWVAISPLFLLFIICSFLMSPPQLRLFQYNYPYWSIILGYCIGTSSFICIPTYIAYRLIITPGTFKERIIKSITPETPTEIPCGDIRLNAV

[14] = biological target: Beta-3 adrenergic receptor (Homo sapiens) (UniProt P13945); conditions: Compound concentration 10.0 uM
[15] = biological target: Type-2 angiotensin II receptor (Homo sapiens) (UniProt P50052); conditions: Compound concentration 10.0 uM
[16] = biological target: T4, Muscarinic acetylcholine receptor M4 (Homo sapiens) (UniProt P08173); conditions: Compound concentration 10.0 uM
T4 sequence (whole entry): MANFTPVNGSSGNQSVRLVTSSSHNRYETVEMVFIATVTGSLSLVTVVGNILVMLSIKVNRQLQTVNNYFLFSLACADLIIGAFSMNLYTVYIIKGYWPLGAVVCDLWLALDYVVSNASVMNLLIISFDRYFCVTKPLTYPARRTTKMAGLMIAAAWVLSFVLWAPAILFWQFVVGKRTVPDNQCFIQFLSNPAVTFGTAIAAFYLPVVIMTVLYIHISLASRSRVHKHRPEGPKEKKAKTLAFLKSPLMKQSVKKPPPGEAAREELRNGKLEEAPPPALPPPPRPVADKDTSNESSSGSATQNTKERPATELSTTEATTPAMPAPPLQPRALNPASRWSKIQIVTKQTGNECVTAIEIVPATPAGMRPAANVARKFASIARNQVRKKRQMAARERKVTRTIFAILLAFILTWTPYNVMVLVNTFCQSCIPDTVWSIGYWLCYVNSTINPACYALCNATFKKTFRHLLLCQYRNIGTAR

[17] = biological target: 5-hydroxytryptamine receptor 2A (Homo sapiens) (UniProt P28223); conditions: Compound concentration 10.0 uM
[18] = biological target: Type-1 angiotensin II receptor (Homo sapiens) (UniProt P30556); conditions: Compound concentration 10.0 uM
Sequence of Type-1 angiotensin II receptor (Homo sapiens) (P30556 whole entry): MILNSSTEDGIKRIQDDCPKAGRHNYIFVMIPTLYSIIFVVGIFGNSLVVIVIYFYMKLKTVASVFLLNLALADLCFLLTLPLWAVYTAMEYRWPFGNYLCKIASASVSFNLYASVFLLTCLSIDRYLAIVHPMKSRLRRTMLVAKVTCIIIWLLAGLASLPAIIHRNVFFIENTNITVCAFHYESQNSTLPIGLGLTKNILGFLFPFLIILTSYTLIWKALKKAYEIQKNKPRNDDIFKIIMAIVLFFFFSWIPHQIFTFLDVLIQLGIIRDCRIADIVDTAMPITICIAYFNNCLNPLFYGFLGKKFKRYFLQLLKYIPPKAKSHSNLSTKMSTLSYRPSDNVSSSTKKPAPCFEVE

[19] = biological target: Progesterone receptor (Homo sapiens) (UniProt P06401); conditions: Compound concentration 10.0 uM
[20] = biological target: 5-hydroxytryptamine receptor 1D (Homo sapiens) (UniProt P28221); conditions: Compound concentration 10.0 uM
Sequence of 5-hydroxytryptamine receptor 1D (Homo sapiens) (P28221 whole entry): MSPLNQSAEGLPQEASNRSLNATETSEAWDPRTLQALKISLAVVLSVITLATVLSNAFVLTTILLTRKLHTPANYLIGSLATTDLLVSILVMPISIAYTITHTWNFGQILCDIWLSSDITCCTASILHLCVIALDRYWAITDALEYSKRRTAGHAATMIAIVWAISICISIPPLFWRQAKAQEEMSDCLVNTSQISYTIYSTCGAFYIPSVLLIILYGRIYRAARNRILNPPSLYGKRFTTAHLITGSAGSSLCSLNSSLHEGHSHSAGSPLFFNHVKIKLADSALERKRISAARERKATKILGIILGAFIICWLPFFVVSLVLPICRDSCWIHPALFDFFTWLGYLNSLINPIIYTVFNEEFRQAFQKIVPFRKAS

[21] = biological target: D(3) dopamine receptor (Homo sapiens) (UniProt P35462); conditions: Compound concentration 10.0 uM
Sequence of D(3) dopamine receptor (Homo sapiens) (P35462 whole entry): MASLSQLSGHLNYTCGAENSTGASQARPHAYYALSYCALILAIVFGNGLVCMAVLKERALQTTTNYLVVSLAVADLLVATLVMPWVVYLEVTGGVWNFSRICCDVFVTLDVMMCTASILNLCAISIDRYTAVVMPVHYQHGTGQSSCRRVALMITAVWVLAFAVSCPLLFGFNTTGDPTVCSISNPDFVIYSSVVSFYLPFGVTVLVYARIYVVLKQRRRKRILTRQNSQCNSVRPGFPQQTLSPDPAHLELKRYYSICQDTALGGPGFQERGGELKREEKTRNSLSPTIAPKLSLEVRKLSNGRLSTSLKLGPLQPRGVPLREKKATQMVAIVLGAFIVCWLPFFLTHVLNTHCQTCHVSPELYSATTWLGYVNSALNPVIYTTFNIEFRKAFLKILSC

[22] = biological target: Sodium-dependent noradrenaline transporter (Homo sapiens) (UniProt P23975); conditions: Compound concentration 10.0 uM
[23] = biological target: Sigma non-opioid intracellular receptor 1 (Homo sapiens) (UniProt Q99720); conditions: Compound concentration 10.0 uM
Sequence of Sigma non-opioid intracellular receptor 1 (Homo sapiens) (Q99720 whole entry): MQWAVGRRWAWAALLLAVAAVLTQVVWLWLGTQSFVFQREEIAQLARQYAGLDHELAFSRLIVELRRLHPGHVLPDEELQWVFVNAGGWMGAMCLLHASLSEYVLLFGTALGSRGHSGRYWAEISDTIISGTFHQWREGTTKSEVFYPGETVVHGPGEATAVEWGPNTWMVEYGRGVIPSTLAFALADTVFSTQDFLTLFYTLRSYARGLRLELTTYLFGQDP

[24] = Compound concentration 0.001 uM

Sequence of Prostaglandin E2 receptor EP4 subtype (Homo sapiens) (P35408 whole entry): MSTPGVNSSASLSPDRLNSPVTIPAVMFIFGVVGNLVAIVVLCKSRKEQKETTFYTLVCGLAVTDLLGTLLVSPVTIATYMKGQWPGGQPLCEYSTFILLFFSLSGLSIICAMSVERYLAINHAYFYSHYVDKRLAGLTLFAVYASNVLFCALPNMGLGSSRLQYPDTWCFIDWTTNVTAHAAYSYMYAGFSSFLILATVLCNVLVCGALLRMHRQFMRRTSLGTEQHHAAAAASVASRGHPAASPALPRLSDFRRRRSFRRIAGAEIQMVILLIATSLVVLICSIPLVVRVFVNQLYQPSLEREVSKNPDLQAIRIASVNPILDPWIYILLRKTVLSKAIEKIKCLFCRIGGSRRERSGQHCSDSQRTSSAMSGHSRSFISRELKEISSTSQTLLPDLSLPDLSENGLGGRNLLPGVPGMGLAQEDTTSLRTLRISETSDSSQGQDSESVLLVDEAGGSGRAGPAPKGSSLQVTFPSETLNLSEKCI

`Cc1c(N2CCCC2)nc2ccc(Br)cc2c1C(=O)NC[C@H](CCC(=O)O)c1ccccc1Cl` [BAY-6672] showed an inhibition [1, 24] of -6%, an inhibition ([1]; Compound concentration 0.01 uM) of -1% and an inhibition ([1]; Compound concentration 0.1 uM) of 6%. The inhibition ([1]; Compound concentration 1.0 uM) was 17%, the inhibition ([1]; Compound concentration 10.0 uM) was 48% and the IC50 [2] was 5 nM (active). It also gave an inhibition [3, 24] of 3%, an inhibition ([3]; Compound concentration 0.01 uM) of 2% and an inhibition ([3]; Compound concentration 0.1 uM) of -3%. For the same compound, the inhibition ([3]; Compound concentration 1.0 uM) was -6%, the inhibition ([3]; Compound concentration 10.0 uM) was 19% and the inhibition [4, 24] was 4%. It also gave an inhibition ([4]; Compound concentration 0.01 uM) of -2%, an inhibition ([4]; Compound concentration 0.1 uM) of 3% and an inhibition ([4]; Compound concentration 1.0 uM) of 15%. The inhibition ([4]; Compound concentration 10.0 uM) was 4%, the inhibition [5] was -5% and the inhibition [6] was 7%. It also gave an inhibition [7] of -0%, an inhibition [8] of 9% and an inhibition [9] of 5%. For the same compound, the inhibition [10] was 21%, the inhibition [11] was 5% and the inhibition [12] was 15%. The inhibition [13] was -4%, the inhibition [14] was 4% and the inhibition [15] was 2%. For the same compound, the inhibition [16] was 6%, the inhibition [17] was -7% and the inhibition [18] was 11%. For the same compound, the inhibition [19] was 14%.

In the case of `Cc1c(N2CCNCC2)nc2ccc(Br)cc2c1C(=O)NC[C@H](CCC(=O)O)c1ccccc1Cl` [BAY-403], the inhibition [20] is reported as 9.12%, the inhibition [21] is reported as 3.81% and the inhibition [22] is reported as 14.1%. It also gave an inhibition [23] of 36.5%.
